The text below walks through data of patent EP0705601B1, “Anthraquinones containing solutions for parenteral administration” (LOMAPHARM Rudolf Lohmann GmbH KG Pharmazeutische Fabrik, priority 1994, dated 1996).

Read-outs that look alike come from different tables or passages of the source.

A short description of series [1]: Increase of solubility with the solubilisers of the invention relative to purely aqueous phase. It counts as physicochemical. The settings on record: fold increase versus solubility in purely aqueous phase, with solubilisers I-III. The text has this: Überraschenderweise wurde nun gefunden, daß die Löslichkeit der Anthrachinone durch den Einsatz von mindestens einem Lösungsvermittler ausgewählt aus • I. Polyethylenglykol-660-12-Hydroxystearat • II. Tetrahydrofurfurylalkoholpolyethylenglykolether • III. Wasserlösliche Beta- und Gamma-Cyclodextrinderivate, allein oder in Kombination mit anderen, physiologisch geeigneten, nichtwäßrigen Lösungsmitteln bzw. Lösungsvermittlern um mehr als das Hundertfache ihrer Löslichkeit in rein wäßriger Phase erhöht werden kann.

The conditions of series [2]: water, Raumtemperatur, cited from earlier work.
The conditions of series [3]: man; D. Lorenz et al. 1985; cited from earlier work.

In the case of `O=C1c2ccccc2C(=O)c2c1ccc(O)c2O` [Alizarin], in series [1], the “Erhöhung der Löslichkeit” value is listed as “mehr als das Tausendfache”. For the same compound, the “Löslichkeit in Wasser” value was “ca. 2 µmol/l” in series [2] and “≈ 0,48 mg/l” in series [2] (conversion of the µmol/l value). Besides, in series [3], the Halbwertzeit entry is listed as “ca. 12 Std”.
